Laboratory results: ChEMBL document CHEMBL1201862, “PubChem BioAssay data set” (2004)
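In this assay, cells in 96-well plates receive the compound at five concentrations for 48 hours. Endpoints are linearly interpolated between the surrounding concentrations. GI50 is the concentration that inhibits growth by half.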 The source made the active and inactive calls. Cut-off read from the data, not from the text of the source: active = GI50 up to about 1.1 µM and inactive = higher.

Legend:
Assay in all cases: NCI tumour cell line growth inhibition, 48 h
[1] = tested on: A498
[2] = tested on: EKVX
[3] = tested on: HCC 2998
[4] = tested on: HL-60
[5] = tested on: HOP-62
[6] = tested on: MDA-MB-231
[7] = tested on: MDA-MB-435
[8] = tested on: MOLT-4
[9] = tested on: NCI-H522
[10] = tested on: OVCAR-3
[11] = tested on: OVCAR-5
[12] = tested on: PC-3
[13] = tested on: SF-295
[14] = tested on: SN12C
[15] = tested on: T47D
[16] = tested on: ACHN
[17] = tested on: HOP-92
[18] = tested on: SNB-75
[19] = tested on: UO-31
[20] = tested on: MDA-N

Row | Structure (SMILES) | GI50 [1] | GI50 [2] | GI50 [3] | GI50 [4] | GI50 [5] | GI50 [6] | GI50 [7] | GI50 [8] | GI50 [9] | GI50 [10] | GI50 [11] | GI50 [12] | GI50 [13] | GI50 [14] | GI50 [15] | GI50 [16] | GI50 [17] | GI50 [18] | GI50 [19] | GI50 [20]
1 | Cc1ccc(-c2n[nH]c(=O)n2N2C(=O)C=CC2=O)cc1 | > 100 µM (inactive) | > 100 µM (inactive) | > 100 µM (inactive) | > 100 µM (inactive) | > 100 µM (inactive) | > 100 µM (inactive) | > 100 µM (inactive) | > 100 µM (inactive) | > 100 µM (inactive) | > 100 µM (inactive) | > 100 µM (inactive) | > 100 µM (inactive) | > 100 µM (inactive) | > 100 µM (inactive) | > 100 µM (inactive) | – | – | – | – | –
2 | NC(=O)c1c([N+](=O)[O-])cc(C(F)(F)F)cc1[N+](=O)[O-] | > 100 µM (inactive) | > 100 µM (inactive) | 38.4 µM (inactive) | 18 µM (inactive) | > 100 µM (inactive) | – | – | > 100 µM (inactive) | 21.5 µM (inactive) | 24.9 µM (inactive) | > 100 µM (inactive) | – | > 100 µM (inactive) | 52.4 µM (inactive) | – | > 100 µM (inactive) | > 100 µM (inactive) | > 100 µM (inactive) | > 100 µM (inactive) | –
3 | N#CCCN(CCN(C(=O)Nc1ccccc1)c1ccccc1)C(=O)Nc1ccccc1 | > 100 µM (inactive) | 69.5 µM (inactive) | > 80.7 µM (inactive) | 13 µM (inactive) | > 100 µM (inactive) | > 100 µM (inactive) | 63.8 µM (inactive) | 28.8 µM (inactive) | > 55.3 µM (inactive) | > 100 µM (inactive) | > 100 µM (inactive) | 43.3 µM (inactive) | 62.5 µM (inactive) | – | > 35.1 µM (inactive) | 52.1 µM (inactive) | > 63 µM (inactive) | > 100 µM (inactive) | 31.2 µM (inactive) | –
4 | Oc1c(-c2ccccc2)sc2ccccc12 | 31.4 µM (inactive) | 24.9 µM (inactive) | 17.1 µM (inactive) | 22.6 µM (inactive) | 16.7 µM (inactive) | 7.55 µM (inactive) | 31.6 µM (inactive) | 24.7 µM (inactive) | 27.9 µM (inactive) | 10.2 µM (inactive) | 27 µM (inactive) | 18.7 µM (inactive) | 19.5 µM (inactive) | – | 11 µM (inactive) | 24.7 µM (inactive) | 21.9 µM (inactive) | 12.4 µM (inactive) | 24.9 µM (inactive) | –
5 | Nc1c(Cl)ncnc1NCC1(CO)CCC1 | > 100 µM (inactive) | 90.4 µM (inactive) | – | > 100 µM (inactive) | > 100 µM (inactive) | > 100 µM (inactive) | > 100 µM (inactive) | > 100 µM (inactive) | > 100 µM (inactive) | > 100 µM (inactive) | > 100 µM (inactive) | > 100 µM (inactive) | > 100 µM (inactive) | > 100 µM (inactive) | – | > 100 µM (inactive) | > 100 µM (inactive) | > 100 µM (inactive) | > 100 µM (inactive) | > 100 µM (inactive)
6 | Oc1nc(-c2ccccc2)cc(-c2ccccc2O)n1 | > 100 µM (inactive) | 6.71 µM (inactive) | > 100 µM (inactive) | 79.1 µM (inactive) | 30.5 µM (inactive) | – | – | 67 µM (inactive) | 69.3 µM (inactive) | 98.2 µM (inactive) | 62.5 µM (inactive) | – | > 100 µM (inactive) | 95.5 µM (inactive) | – | 67.6 µM (inactive) | 84.5 µM (inactive) | 43.9 µM (inactive) | 41 µM (inactive) | –
7 | CN(/N=C\c1ccc2ccccc2c1)C1=NCCN1 | 12.1 µM (inactive) | 19.8 µM (inactive) | 16.2 µM (inactive) | 10.4 µM (inactive) | 18.5 µM (inactive) | 16.4 µM (inactive) | 15.6 µM (inactive) | 14.7 µM (inactive) | 15.7 µM (inactive) | 31.9 µM (inactive) | 34.8 µM (inactive) | – | 14.4 µM (inactive) | – | 26.2 µM (inactive) | 23.1 µM (inactive) | 0.0817 µM (active) | 10.6 µM (inactive) | 13.2 µM (inactive) | –
8 | O=C1c2cc3ncsc3cc2C(=O)c2c(O)ccc(O)c21 | > 100 µM (inactive) | > 100 µM (inactive) | > 100 µM (inactive) | – | > 100 µM (inactive) | > 100 µM (inactive) | > 100 µM (inactive) | > 100 µM (inactive) | > 100 µM (inactive) | > 100 µM (inactive) | > 100 µM (inactive) | > 100 µM (inactive) | > 100 µM (inactive) | > 100 µM (inactive) | – | > 100 µM (inactive) | > 100 µM (inactive) | > 100 µM (inactive) | > 100 µM (inactive) | > 100 µM (inactive)
9 | COC(=O)CCN(CCC(=O)OC)C1CC1 | > 100 µM (inactive) | > 100 µM (inactive) | > 100 µM (inactive) | > 100 µM (inactive) | > 100 µM (inactive) | > 100 µM (inactive) | > 100 µM (inactive) | > 100 µM (inactive) | – | – | > 100 µM (inactive) | – | > 100 µM (inactive) | > 100 µM (inactive) | > 100 µM (inactive) | > 100 µM (inactive) | 28.3 µM (inactive) | > 100 µM (inactive) | 76.7 µM (inactive) | –
10 | c1ccc2c(c1)[n-]n1c3ccc4nonc4c3n[n+]21 | > 100 µM (inactive) | > 100 µM (inactive) | > 100 µM (inactive) | > 100 µM (inactive) | 84.5 µM (inactive) | > 100 µM (inactive) | > 100 µM (inactive) | > 100 µM (inactive) | > 100 µM (inactive) | > 100 µM (inactive) | > 100 µM (inactive) | > 100 µM (inactive) | > 100 µM (inactive) | > 100 µM (inactive) | – | > 100 µM (inactive) | > 100 µM (inactive) | 56.1 µM (inactive) | > 100 µM (inactive) | > 100 µM (inactive)
11 | O=C(NNC(c1ccccc1)C(F)(F)F)c1ccncc1 (stereo not given) | – | > 100 µM (inactive) | > 100 µM (inactive) | > 100 µM (inactive) | > 100 µM (inactive) | > 100 µM (inactive) | > 100 µM (inactive) | > 100 µM (inactive) | > 100 µM (inactive) | – | > 100 µM (inactive) | > 100 µM (inactive) | > 100 µM (inactive) | > 100 µM (inactive) | – | > 100 µM (inactive) | > 100 µM (inactive) | > 100 µM (inactive) | – | –
12 | O=C(CCCNC(=O)OCc1ccccc1)OCc1ccc2c(c1)C(=O)c1ccccc1C2=O | 27.2 µM (inactive) | > 100 µM (inactive) | > 100 µM (inactive) | > 100 µM (inactive) | 30.6 µM (inactive) | – | – | > 100 µM (inactive) | > 100 µM (inactive) | > 100 µM (inactive) | > 100 µM (inactive) | – | 11.3 µM (inactive) | > 10.2 µM (inactive) | – | > 100 µM (inactive) | 36.6 µM (inactive) | 20 µM (inactive) | > 100 µM (inactive) | –
13 | O=C(/C=C\c1ccc(-c2ccccc2)cc1)c1cccs1 | 8.67 µM (inactive) | 53 µM (inactive) | > 28.4 µM (inactive) | 3.89 µM (inactive) | 25.3 µM (inactive) | 48.5 µM (inactive) | 17.5 µM (inactive) | 3.1 µM (inactive) | 3.87 µM (inactive) | 9.29 µM (inactive) | 45.2 µM (inactive) | > 100 µM (inactive) | 29.7 µM (inactive) | 7.45 µM (inactive) | – | 32.3 µM (inactive) | > 69.2 µM (inactive) | 28.6 µM (inactive) | 16.6 µM (inactive) | 7.89 µM (inactive)
14 | Cc1ccccc1Nc1cn(COCc2ccccc2)c(=O)[nH]c1=O | > 100 µM (inactive) | 30.7 µM (inactive) | > 100 µM (inactive) | > 100 µM (inactive) | > 100 µM (inactive) | – | 85.3 µM (inactive) | 55.2 µM (inactive) | 40.2 µM (inactive) | 79.8 µM (inactive) | > 100 µM (inactive) | 38.4 µM (inactive) | > 100 µM (inactive) | > 100 µM (inactive) | – | > 100 µM (inactive) | > 100 µM (inactive) | – | 52.4 µM (inactive) | > 100 µM (inactive)
15 | Cc1ccc(S(=O)(=O)Oc2nc3ccccc3nc2N(S(=O)(=O)c2ccc(C)cc2)S(=O)(=O)c2ccc(C)cc2)cc1 | 89.9 µM (inactive) | 30.3 µM (inactive) | 0.625 µM (active) | 33 µM (inactive) | – | 71.6 µM (inactive) | 35.8 µM (inactive) | 47.4 µM (inactive) | 74 µM (inactive) | 41.5 µM (inactive) | 33 µM (inactive) | 38.4 µM (inactive) | 30.3 µM (inactive) | 44 µM (inactive) | – | 45.9 µM (inactive) | – | 37.2 µM (inactive) | 61.8 µM (inactive) | 45 µM (inactive)
16 | CN1CC[C@]23c4c5ccc(O)c4OC2c2[nH]ncc2C[C@H]3[C@H]1C5 (stereo not given in full) | – | > 100 µM (inactive) | > 100 µM (inactive) | > 100 µM (inactive) | > 100 µM (inactive) | > 100 µM (inactive) | > 100 µM (inactive) | > 100 µM (inactive) | > 100 µM (inactive) | > 100 µM (inactive) | > 100 µM (inactive) | > 100 µM (inactive) | > 100 µM (inactive) | > 100 µM (inactive) | > 100 µM (inactive) | > 100 µM (inactive) | > 100 µM (inactive) | 94.6 µM (inactive) | > 100 µM (inactive) | –
